The NIST ThermoML archive (doi:10.1021/je100927m)

What was measured:
[1] = Liquid; for mass density: 101.33 kPa; for speed of sound: Pulse-echo method
[2] = refractive index (Na D-line) (dimensionless); conditions: 298.15 K; 101.33 kPa; Liquid; Standard Abbe refractometry

CCCCC(CC)CO (stereo unspecified) [2-ethyl-1-hexanol]
[1]
Conditions | mass density [kg/m3]
283.15 K | 839.89
288.15 K | 836.26
293.15 K | 832.62
298.14 K | 828.96
303.15 K | 825.28
308.15 K | 821.58
313.14 K | 817.86
318.15 K | 814.11
323.15 K | 810.33
328.15 K | 806.52
333.15 K | 802.68
338.14 K | 798.8
343.15 K | 794.87
348.15 K | 790.91
353.15 K | 786.89
358.15 K | 782.83
363.15 K | 778.72

speed of sound [m/s], [1]
Conditions | 101 kPa | 15200 kPa | 30390 kPa | 45590 kPa | 60790 kPa | 75990 kPa | 91180 kPa | 101320 kPa
292.89 K | – | 1418.5 | 1487.2 | 1549.6 | 1607.2 | 1660.4 | 1710.5 | 1742
293.15 K | 1336.3 | – | – | – | – | – | – | –
298.15 K | 1318.4 | – | – | – | – | – | – | –
298.19 K | – | 1400.2 | 1470.1 | 1533.2 | 1591.5 | 1645.4 | 1696 | 1728
303.15 K | 1300.6 | 1383.5 | 1454.4 | 1518.4 | 1577.5 | 1631.8 | 1682.7 | 1715.1
308.13 K | – | 1367.2 | 1438.9 | 1503.8 | 1563.5 | 1618.6 | 1669.8 | 1702.5
308.15 K | 1282.8 | – | – | – | – | – | – | –
313.1 K | – | 1351.2 | 1424 | 1489.6 | 1549.7 | 1605.5 | 1657.2 | 1689.9
313.15 K | 1264.9 | – | – | – | – | – | – | –
318.15 K | 1247.1 | – | – | – | – | – | – | –
318.26 K | – | 1334.8 | 1408.8 | 1475.2 | 1535.9 | 1592.2 | 1644.5 | 1677.4

Conditions | refractive index
[2] | 1.4292
